Test results published in patent US20230257347A1 (priority 2020, published 2023).
Counter-ions that a name gives are not always drawn.

Key:
[1] = biological target: T1, 5-Hydroxytryptamine (Serotonin) Receptor 1A (5-HT1A) (Homo sapiens, UniProt P08908); assay: cAMP secondary messenger assay, 5-HT1A; assay type: cell-based
T1 sequence (P08908 1-422): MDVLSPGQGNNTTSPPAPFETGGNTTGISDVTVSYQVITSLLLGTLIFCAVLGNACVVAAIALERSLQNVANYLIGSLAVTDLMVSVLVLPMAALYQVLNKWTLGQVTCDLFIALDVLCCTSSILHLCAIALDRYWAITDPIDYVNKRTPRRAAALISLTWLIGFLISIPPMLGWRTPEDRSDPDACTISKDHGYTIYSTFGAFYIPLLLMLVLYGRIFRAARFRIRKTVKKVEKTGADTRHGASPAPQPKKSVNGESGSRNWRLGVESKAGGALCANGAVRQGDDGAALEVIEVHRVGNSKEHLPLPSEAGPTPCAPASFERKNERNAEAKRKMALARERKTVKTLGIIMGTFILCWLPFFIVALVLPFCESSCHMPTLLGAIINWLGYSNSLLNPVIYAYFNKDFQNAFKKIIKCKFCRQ

[2] = biological target: T2, Nuclear Hormone Androgen Receptor (AR) (Homo sapiens, UniProt P10275); assay: NHR Nuclear Translocation assay, AR; assay type: cell-based
T2 sequence (P10275 1-920): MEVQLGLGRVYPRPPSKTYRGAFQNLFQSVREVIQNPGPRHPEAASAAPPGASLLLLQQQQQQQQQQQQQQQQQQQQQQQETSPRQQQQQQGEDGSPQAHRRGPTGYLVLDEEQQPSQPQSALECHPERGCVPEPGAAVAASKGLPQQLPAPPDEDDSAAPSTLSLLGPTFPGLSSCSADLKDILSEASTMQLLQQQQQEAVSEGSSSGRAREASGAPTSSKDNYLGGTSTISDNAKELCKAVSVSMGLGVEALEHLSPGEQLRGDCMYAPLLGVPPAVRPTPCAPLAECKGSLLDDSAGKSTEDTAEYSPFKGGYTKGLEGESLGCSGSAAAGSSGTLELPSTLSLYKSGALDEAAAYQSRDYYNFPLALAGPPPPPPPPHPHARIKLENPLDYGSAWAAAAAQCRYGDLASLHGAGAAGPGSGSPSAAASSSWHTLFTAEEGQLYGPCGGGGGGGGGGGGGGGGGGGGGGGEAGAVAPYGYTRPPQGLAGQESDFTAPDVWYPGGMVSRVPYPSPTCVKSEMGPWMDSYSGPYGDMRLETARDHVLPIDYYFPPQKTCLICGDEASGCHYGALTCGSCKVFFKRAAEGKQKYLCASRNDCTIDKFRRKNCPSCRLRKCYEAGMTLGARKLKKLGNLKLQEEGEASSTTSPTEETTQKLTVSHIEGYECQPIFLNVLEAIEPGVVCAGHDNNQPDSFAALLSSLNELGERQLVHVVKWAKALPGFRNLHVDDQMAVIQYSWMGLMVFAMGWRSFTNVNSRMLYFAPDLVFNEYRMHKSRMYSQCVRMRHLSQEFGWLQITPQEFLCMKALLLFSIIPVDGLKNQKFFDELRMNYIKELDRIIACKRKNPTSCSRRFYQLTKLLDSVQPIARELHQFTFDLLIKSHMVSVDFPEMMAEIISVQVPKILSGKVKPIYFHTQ

[3] = biological target: 5-Hydroxytryptamine (Serotonin) Receptor 2A (5-HT2A) (Homo sapiens, UniProt P28223); assay: Calcium flux secondary messenger assay, 5-HT2A; assay type: cell-based
[4] = biological target: T3, CGMP-inhibited cyclic nucleotide phosphodiesterase 3A (PDE3A) (Homo sapiens, UniProt Q14432); assay: Enzymatic assay, PDE3A; assay type: biochemical
T3 construct: purchased Signal Chem

Cyclooxygenase 1 (COX1) = biological target: T4, Cyclooxygenase 1 (COX1) (Homo sapiens, UniProt P23219); assay: Enzymatic assay, COX1; assay type: biochemical
T4 construct: purchased BPS Bioscience

[5] = biological target: T5, Muscarinic acetylcholine Receptor M1 (CHRM1) (Homo sapiens, UniProt P11229); assay: cell-based
T5 sequence (P11229 1-460): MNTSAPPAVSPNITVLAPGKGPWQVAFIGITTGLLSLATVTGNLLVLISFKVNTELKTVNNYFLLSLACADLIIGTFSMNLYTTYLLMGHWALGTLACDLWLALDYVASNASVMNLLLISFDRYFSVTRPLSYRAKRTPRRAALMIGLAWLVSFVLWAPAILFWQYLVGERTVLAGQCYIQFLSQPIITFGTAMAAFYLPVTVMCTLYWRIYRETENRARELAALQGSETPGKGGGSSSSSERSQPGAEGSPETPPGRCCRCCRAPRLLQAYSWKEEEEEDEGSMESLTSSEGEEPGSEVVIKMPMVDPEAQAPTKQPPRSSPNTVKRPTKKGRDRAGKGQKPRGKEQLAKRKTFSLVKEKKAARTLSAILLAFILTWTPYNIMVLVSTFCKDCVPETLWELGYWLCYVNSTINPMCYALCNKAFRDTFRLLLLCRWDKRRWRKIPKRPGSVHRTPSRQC

[6] = biological target: Dopamine Receptor D1 (DRD1) (Homo sapiens, UniProt P21728); assay: cAMP assay, DRD1; assay type: cell-based
[7] = biological target: Opioid Receptor Delta 1 (OPRD1) (Homo sapiens, UniProt P41143); assay: cAMP assay, OPRD1; assay type: cell-based
[8] = biological target: Opioid Receptor Mu (OPRM1) (Homo sapiens, UniProt P35372); assay: cell-based
[9] = biological target: T6, 5-Hydroxytryptamine (Serotonin) Receptor 3A (5-HT3A) (Homo sapiens, UniProt P46098); assay: Ion channel assay, 5-HT3A; assay type: cell-based
T6 sequence (P46098 24-478): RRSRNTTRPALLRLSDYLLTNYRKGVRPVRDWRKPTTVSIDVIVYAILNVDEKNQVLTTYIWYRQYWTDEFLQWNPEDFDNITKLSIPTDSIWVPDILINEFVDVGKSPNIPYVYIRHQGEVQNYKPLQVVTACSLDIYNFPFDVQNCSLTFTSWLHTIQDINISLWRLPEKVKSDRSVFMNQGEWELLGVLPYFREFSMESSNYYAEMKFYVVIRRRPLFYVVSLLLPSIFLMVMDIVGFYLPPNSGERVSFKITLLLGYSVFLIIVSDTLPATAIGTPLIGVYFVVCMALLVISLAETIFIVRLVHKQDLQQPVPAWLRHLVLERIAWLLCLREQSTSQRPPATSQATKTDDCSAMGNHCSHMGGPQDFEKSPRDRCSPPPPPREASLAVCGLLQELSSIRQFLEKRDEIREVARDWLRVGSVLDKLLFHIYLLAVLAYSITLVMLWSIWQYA

T3 sequence (Q14432 whole entry): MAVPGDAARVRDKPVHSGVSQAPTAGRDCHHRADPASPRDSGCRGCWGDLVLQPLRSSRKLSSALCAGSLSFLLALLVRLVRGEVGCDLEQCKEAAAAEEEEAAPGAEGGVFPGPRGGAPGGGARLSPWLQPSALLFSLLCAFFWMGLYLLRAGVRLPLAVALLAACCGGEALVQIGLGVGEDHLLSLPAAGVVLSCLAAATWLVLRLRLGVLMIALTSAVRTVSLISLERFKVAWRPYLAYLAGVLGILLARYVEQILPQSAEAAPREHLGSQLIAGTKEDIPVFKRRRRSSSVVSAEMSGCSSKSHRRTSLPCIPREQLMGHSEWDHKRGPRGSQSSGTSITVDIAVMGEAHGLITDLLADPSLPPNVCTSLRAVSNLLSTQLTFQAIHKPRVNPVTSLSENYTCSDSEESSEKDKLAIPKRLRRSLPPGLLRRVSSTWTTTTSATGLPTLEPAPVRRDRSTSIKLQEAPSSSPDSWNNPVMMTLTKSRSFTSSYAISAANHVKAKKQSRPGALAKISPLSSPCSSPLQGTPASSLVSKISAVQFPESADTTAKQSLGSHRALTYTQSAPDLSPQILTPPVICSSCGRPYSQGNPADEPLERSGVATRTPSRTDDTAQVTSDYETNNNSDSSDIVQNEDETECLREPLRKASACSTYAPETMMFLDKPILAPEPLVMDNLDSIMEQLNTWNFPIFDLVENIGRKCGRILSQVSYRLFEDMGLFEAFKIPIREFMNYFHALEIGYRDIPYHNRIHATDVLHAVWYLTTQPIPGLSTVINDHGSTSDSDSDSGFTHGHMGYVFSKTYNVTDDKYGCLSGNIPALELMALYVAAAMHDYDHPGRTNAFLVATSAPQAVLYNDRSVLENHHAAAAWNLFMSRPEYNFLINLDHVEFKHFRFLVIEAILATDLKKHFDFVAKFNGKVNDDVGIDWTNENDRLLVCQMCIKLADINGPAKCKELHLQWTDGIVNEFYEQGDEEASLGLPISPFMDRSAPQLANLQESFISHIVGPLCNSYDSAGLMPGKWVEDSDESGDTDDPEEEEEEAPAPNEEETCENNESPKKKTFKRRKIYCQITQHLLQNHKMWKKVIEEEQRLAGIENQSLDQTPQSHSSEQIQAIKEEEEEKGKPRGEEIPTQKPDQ
Dopamine Receptor D1 (DRD1), sequence (P21728 whole entry): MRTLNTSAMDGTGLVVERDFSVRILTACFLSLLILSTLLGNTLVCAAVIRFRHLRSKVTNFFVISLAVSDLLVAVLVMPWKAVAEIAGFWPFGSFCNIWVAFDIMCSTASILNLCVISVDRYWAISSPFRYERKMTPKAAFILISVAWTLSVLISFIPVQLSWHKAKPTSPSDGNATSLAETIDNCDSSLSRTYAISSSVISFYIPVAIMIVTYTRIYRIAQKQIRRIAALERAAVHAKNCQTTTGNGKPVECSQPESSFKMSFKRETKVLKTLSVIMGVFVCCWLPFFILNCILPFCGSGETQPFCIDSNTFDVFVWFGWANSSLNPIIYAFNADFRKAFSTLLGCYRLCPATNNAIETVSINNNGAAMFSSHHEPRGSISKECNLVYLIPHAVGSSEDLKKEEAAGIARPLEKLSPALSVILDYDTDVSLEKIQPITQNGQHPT
5-Hydroxytryptamine (Serotonin) Receptor 2A (5-HT2A), sequence (P28223 whole entry, looked up): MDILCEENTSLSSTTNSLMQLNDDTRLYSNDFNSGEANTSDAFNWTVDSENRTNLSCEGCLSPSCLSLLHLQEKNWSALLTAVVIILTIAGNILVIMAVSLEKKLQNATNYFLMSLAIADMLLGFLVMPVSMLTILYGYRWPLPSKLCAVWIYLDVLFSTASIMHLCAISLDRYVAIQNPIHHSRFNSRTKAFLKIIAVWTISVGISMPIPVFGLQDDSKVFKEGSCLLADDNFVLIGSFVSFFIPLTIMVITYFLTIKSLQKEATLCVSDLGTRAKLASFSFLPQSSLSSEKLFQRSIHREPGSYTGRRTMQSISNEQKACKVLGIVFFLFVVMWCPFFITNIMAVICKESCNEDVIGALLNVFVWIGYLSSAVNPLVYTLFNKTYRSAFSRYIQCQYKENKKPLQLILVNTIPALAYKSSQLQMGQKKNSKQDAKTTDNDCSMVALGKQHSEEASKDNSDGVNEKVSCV
Opioid Receptor Delta 1 (OPRD1), sequence (P41143 whole entry): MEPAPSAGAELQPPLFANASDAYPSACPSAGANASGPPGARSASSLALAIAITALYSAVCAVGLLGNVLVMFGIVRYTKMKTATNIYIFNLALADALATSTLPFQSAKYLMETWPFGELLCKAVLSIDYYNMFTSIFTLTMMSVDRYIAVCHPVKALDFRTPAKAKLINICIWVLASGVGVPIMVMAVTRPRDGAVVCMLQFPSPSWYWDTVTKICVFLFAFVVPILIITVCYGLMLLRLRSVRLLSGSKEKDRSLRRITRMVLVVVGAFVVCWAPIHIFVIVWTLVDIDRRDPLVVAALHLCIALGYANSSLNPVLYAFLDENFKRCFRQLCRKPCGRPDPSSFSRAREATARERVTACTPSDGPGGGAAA
Opioid Receptor Mu (OPRM1), sequence (P35372 whole entry): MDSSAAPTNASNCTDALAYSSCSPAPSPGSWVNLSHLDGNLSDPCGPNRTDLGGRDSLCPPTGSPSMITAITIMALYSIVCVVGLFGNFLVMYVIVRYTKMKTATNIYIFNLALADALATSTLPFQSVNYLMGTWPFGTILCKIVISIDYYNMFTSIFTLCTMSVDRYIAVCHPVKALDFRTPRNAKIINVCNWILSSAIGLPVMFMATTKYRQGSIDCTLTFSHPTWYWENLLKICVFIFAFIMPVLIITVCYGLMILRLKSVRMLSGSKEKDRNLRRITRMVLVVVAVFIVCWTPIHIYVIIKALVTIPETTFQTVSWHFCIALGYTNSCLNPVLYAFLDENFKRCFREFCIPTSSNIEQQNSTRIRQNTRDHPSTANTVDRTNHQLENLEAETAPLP
T4 sequence (P23219 24-599): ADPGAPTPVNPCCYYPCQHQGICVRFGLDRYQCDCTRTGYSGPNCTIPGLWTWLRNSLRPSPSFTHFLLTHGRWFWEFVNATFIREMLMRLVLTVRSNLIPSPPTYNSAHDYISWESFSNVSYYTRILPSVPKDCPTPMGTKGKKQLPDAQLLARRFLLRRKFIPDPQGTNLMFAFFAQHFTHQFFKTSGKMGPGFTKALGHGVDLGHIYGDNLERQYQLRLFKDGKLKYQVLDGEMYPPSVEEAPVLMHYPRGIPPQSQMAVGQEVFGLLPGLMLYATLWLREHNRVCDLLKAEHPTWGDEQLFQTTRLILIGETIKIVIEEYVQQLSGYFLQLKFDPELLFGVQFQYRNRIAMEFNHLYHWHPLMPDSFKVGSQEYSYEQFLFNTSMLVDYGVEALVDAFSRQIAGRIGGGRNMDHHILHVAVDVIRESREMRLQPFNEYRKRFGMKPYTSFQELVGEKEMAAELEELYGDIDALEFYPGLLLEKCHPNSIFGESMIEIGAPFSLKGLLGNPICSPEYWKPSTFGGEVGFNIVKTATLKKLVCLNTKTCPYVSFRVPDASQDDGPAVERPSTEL

SMILES | EC50 [1] [µM] | IC50 [1] [µM] | EC50 [2] [µM] | IC50 [2] [µM] | EC50 [3] [µM] | IC50 [3] [µM] | IC50 [4] [µM] | IC50 (Cyclooxygenase 1 (COX1)) [µM] | EC50 [5] [µM] | IC50 [5] [µM] | EC50 [6] [µM] | IC50 [6] [µM] | EC50 [7] [µM] | IC50 [7] [µM] | EC50 [8] [µM] | IC50 [8] [µM] | EC50 [9] [µM] | IC50 [9] [µM]
CNC(C)C(=O)c1c[nH]c2ccc(Br)cc12 (stereo not drawn) [BK-5Br-NM-AMT, 1-(5-bromo-1H-indol-3-yl)-2-(methylamino) propan-1-one hydrochloride] | > 10 | > 10 | > 10 | > 10 | > 10 | 8.63 | > 10 | > 10 | > 10 | > 10 | > 10 | 9.7 | > 10 | > 10 | > 10 | > 10 | > 10 | 0.673
CNC(C)C(=O)c1c[nH]c2ccc(F)cc12 (stereo not drawn) [BK-5F-NM-AMT, 1-(5-Fluoro-1H-indol-3-yl)-2-(methylamino) propan-1-one hydrochloride] | > 10 | > 10 | > 10 | > 10 | > 10 | > 10 | > 10 | > 10 | > 10 | > 10 | > 10 | > 10 | > 10 | > 10 | > 10 | > 10 | > 10 | > 30
CNC(C)C(=O)c1c[nH]c2ccc(Cl)cc12 (stereo not drawn) [BK-5Cl-NM-AMT, 1-(5-chloro-1H-indol-3-yl)-2-(methylamino) propan-1-one hydrochloride] | > 10 | > 10 | > 10 | > 10 | > 10 | > 10 | > 10 | > 10 | > 10 | > 10 | > 10 | > 10 | > 10 | > 10 | > 10 | > 10 | > 10 | 0.965
